The record followed here is patent publication US11161856B2 (H. Lundbeck A/S, priority 2017, dated 2021).

The target in one test is T1, ABHD6 (Mus musculus, UniProt Q8R2Y0).
T1 construct: Brain; from tissue; host or cells: mouse brain proteome
T1 sequence (Q8R2Y0 1-336): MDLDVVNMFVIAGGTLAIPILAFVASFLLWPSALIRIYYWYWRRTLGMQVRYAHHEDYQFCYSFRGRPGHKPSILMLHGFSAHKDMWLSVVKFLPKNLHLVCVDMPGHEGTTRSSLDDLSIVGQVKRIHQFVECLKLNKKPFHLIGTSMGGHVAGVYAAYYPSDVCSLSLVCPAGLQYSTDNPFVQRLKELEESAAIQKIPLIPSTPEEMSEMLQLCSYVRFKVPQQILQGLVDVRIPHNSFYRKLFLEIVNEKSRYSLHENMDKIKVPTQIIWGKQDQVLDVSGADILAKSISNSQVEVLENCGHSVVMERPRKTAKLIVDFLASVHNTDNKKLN
Kind of test: In vitro competitive activity-based protein profiling, mouse brain proteome (ABHD6). The class given is biochemical. The note with it: mouse brain proteome; for % Inh ABHD6 Brain (Mouse, μM): concentration not given (μM). How it is done:
[The source words this procedure for another target and reports this target under the same test.] In Vitro Competitive Activity-Based Protein Profiling.
Proteomes (human prefrontal cortex or cell membrane fractions) (50 μL, 1.0 mg/mL total protein concentration) were preincubated with varying concentrations of inhibitors at 37° C. After 30 min, FP-Rh or HT-01 (1.0 μL, 50 μM in DMSO) was added and the mixture was incubated for another 30 min at room temperature. Reactions were quenched with SDS loading buffer (15 μL-4×) and run on SDS-PAGE.

The target of a further test is T2, MGLL (Mus musculus, UniProt O35678).
T2 construct: Brain; from tissue; host or cells: mouse brain proteome
T2 sequence (O35678 1-303): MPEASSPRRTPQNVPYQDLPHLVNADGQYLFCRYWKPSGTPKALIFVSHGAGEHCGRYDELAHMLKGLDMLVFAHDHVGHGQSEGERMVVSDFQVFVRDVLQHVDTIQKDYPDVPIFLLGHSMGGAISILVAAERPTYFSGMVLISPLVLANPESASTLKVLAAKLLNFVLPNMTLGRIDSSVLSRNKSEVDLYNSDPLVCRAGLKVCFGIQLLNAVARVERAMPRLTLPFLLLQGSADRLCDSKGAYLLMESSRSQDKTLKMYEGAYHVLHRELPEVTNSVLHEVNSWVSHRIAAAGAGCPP
Briefly: In vitro competitive activity-based protein profiling, mouse brain proteome (MGLL). The class given is biochemical. On the set-up: IC50 MGLL Brain (Mouse, μM): scale not given here. The note with it: for % Inh MGLL Brain (Mouse, μM): concentration not given (μM); for inhibition at 10 µM: read-out: % Inh MGLL Brain (Mouse).

Regarding `CCN1CCCc2cccc(CN3CC4(CCN(C(=O)OC(C(F)(F)F)C(F)(F)F)CC4)C3)c21` [Example 16, 1,1,1,3,3,3-Hexafluoropropan-2-yl 2-((1-ethyl-1,2,3,4-tetrahydroquinolin-8-yl)methyl)-2,7-diazaspiro[3.5]nonane-7-carboxylate], the “% Inh ABHD6 Brain (Mouse, μM)” value on ABHD6 is given as “### (### is ≥75%)”. Moreover, at MGLL, the “IC50 MGLL Brain (Mouse, μM)” value is on record as “* * *” and the “% Inh MGLL Brain (Mouse, μM)” value is “### (### is ≥75%)”.
For `CC(=O)N1CC2(CCN(c3cc(C(F)(F)F)ccc3CN3CCN(C(=O)OC(C(F)(F)F)C(F)(F)F)CC3)C2)C1` [Example 180, 1,1,1,3,3,3-Hexafluoropropan-2-yl 4-(2-(2-acetyl-2,6-diazaspiro[3,4]octan-6-yl)-4-(trifluoromethyl)benzyl)pipera zine-1-carboxylate], on ABHD6, the “% Inh ABHD6 Brain (Mouse, μM)” value was “# (# is ≤25%)”. Also, the “% Inh MGLL Brain (Mouse, μM)” value on MGLL is listed as “### (### is ≥75%)”.
Taken in the same sequence, the figures for `O=C(OC(C(F)(F)F)C(F)(F)F)N1CCC2(CC1)CN(Cc1ccc(F)cc1)C2` [Example 93, 1,1,1,3,3,3-Hexafluoropropan-2-yl 2-(4-fluorobenzyl)-2,7-diazaspiro[3,5]nonane-7-carboxylate] were “### (### is ≥75%)” and “### (### is ≥75%)”.
Taken in the same sequence, the figures for `CC(=O)N1CC2(CCN(c3cc(Cl)cc(CN4CCCC45CN(C(=O)OC(C(F)(F)F)C(F)(F)F)C5)c3)CC2)C1` [Example 238, 1,1,1,3,3,3-Hexafluoropropan-2-yl 5-(3-(2-acetyl-2,7-diazaspiro[3.5]nonan-7-yl)-5-chlorobenzyl)-2,5- .diazaspiro[3.4]octane-2-carboxylate] were “### (### is ≥75%)” and “### (### is ≥75%)”.
Taken in the same sequence, the figures for `CS(=O)(=O)N1CCC2(CCN(c3cc(Cl)ccc3CN3CCN(C(=O)OC(C(F)(F)F)C(F)(F)F)CC3)CC2)C1` [Example 174, 1,1,1,3,3,3-Hexafluoropropan-2-yl 4-(4-chloro-2-(2-(methylsulfonyl)-2,8-diazaspiro[4.5]decan-8-yl)benzyl)piperazine-1-carboxylate] were “# (# is ≤25%)” and “### (### is ≥75%)”.
As to `O=C(OC(C(F)(F)F)C(F)(F)F)N1CCC2(CCN(Cc3ccc(Cl)c(N4CCCC4)c3)CC2)C1` [Example 172, 1,1,1,3,3,3-Hexafluoropropan-2-yl 8-(4-chloro-3-(pynolidin-1-yl)benzyl)-2,8-diazaspiro[4.5]decane-2-carboxylate], the inhibition at 10 µM on ABHD6 (at 10 uM, read-out: % Inh ABHD6 Brain (Mouse)) was 25 to 75%; at MGLL it was > 75%.
`CC(=O)N1CCC2(CC1)CN(c1cc(C(F)(F)F)ccc1CN1CCN(C(=O)OC(C(F)(F)F)C(F)(F)F)CC1)C2` [Example 199, 1.1,1.3.3,3-Hexafluoropropan-2-yl 4-(2-(7-acetyl-2,7-diazaspiro[3.5]nonan-2-yl)-4-(trifluoromethyl)benzyl)pipera zine-l-carboxylate]: on ABHD6, the “% Inh ABHD6 Brain (Mouse, μM)” value is “# (# is ≤25%)”. On MGLL, the “% Inh MGLL Brain (Mouse, μM)” value is “### (### is ≥75%)”.
Consider `O=C(OC(C(F)(F)F)C(F)(F)F)N1CCC2(CC1)CN(Cc1cccc(C(F)(F)F)c1)C2` [Example 89, 1,1,1,3,3,3-Hexafluoropropan-2-yl 2-(3-(trifluoromethyl)benzyl)-2,7-diazaspiro[3.5]nonane-7-carboxylate], for which the “% Inh ABHD6 Brain (Mouse, μM)” value on ABHD6 is “### (### is ≥75%)”. Moreover, at MGLL, the “% Inh MGLL Brain (Mouse, μM)” value was “### (### is ≥75%)”.
`O=C(OC(C(F)(F)F)C(F)(F)F)N1CCC2(CC1)CN(Cc1c(Cl)cccc1N1CCOCC1)C2` [Example 46, 1,1,1,3,3,3-Hexafluoropropan-2-yl 2-(2-chloro-6-morpholinobenzyl)-2,7-diazaspiro[3.5]nonane-7-carboxylate]: the “% Inh ABHD6 Brain (Mouse, μM)” value at ABHD6 is recorded as “### (### is ≥75%)”. For the same molecule, the “% Inh MGLL Brain (Mouse, μM)” value on MGLL is recorded as “### (### is ≥75%)”.
As for `O=C(OC(C(F)(F)F)C(F)(F)F)N1CCC2(CC1)CN(Cc1ccc(C(F)(F)F)cc1N1CCCC1)C2` [Example 151, 1,1,1,3,3,3-Hexafluoropropan-2-yl 2-(2-(pyrrolidin-1-yl)-4-(trifluoromethyl)benzyl)-2,7-diazaspiro[3.5]nonane-7-carboxylate], the “% Inh ABHD6 Brain (Mouse, μM)” value on ABHD6 is on record as “### (### is ≥75%)”. The “% Inh MGLL Brain (Mouse, μM)” value on MGLL is recorded as “### (### is ≥75%)”.
Consider `O=C(OC(C(F)(F)F)C(F)(F)F)N1CC2(CCN(Cc3ccc(CN4CCOCC4)cc3)CC2)C1` [Example 18, 1,1,1,3,3,3-Hexafluoropropan-2-yl 7-(4-(morpholinomethyl)benzyl)-2,7-diazaspiro[3.5]nonane-2-carboxylate], for which the “% Inh ABHD6 Brain (Mouse, μM)” value at ABHD6 is reported as “### (### is ≥75%)”. Besides, the “% Inh MGLL Brain (Mouse, μM)” value on MGLL is “## (## is between 25 and 75%)”.
Regarding `O=C(OC(C(F)(F)F)C(F)(F)F)N1CCC2(CC1)CN(Cc1ccc(Cl)cc1N1CCOCC1)C2` [Example 39, 1,1,1,3,3,3-Hexafluoropropan-2-yl 2-(4-chloro-2-morpholinobenzyl)-2,7-diazaspiro[3.5]nonane-7-carboxylate], the “% Inh ABHD6 Brain (Mouse, μM)” value at ABHD6 is “### (### is ≥75%)”. Also, the “% Inh MGLL Brain (Mouse, μM)” value on MGLL is “### (### is ≥75%)”.
As for `CS(=O)(=O)N1CCC2(CCN(c3cc(Cl)cc(CN4CCCC45CN(C(=O)OC(C(F)(F)F)C(F)(F)F)C5)c3)CC2)C1` [Example 232], the “% Inh ABHD6 Brain (Mouse, μM)” value on ABHD6 is given as “### (### is ≥75%)”. On MGLL, the inhibition at 10 µM was in the range of 25 to 75%.
Regarding `COc1cccc(CN2CC3(CCN(C(=O)OC(C(F)(F)F)C(F)(F)F)CC3)C2)c1` [Example 87, 1,1,1,3,3,3-Hexafluoropropan-2-yl 2-(3-methoxybenzyl)-2,7-diazaspiro[3.5]nonane-7-carboxylate], the “% Inh ABHD6 Brain (Mouse, μM)” value on ABHD6 was “### (### is ≥75%)”. Moreover, the “% Inh MGLL Brain (Mouse, μM)” value at MGLL is “### (### is ≥75%)”.
For the molecule `CS(=O)(=O)N1CC2CN(c3cc(Cl)ccc3CN3CCN(C(=O)OC(C(F)(F)F)C(F)(F)F)CC3)CC2C1` (stereo not drawn) [Example 203, 1,1,1,3,3,3-Hexafluoropropan-2-yl 4-(4-chloro-2-(5-(methylsulfonyl)hexahydropyrrolo[3,4-c]pyrrol-2(lH)-yl)benzyl)piperazine-l - carboxylate], the “% Inh ABHD6 Brain (Mouse, μM)” value at ABHD6 is recorded as “### (### is ≥75%)”. The “% Inh MGLL Brain (Mouse, μM)” value at MGLL is given as “### (### is ≥75%)”.
Regarding `O=C(OC(C(F)(F)F)C(F)(F)F)N1CCC2(CC1)CN(Cc1cccc(N3CCCC3)c1)C2` [Example 94, 1,1,1,3,3,3-Hexafluoropropan-2-yl 2-(3-(pyrrolidin-1-yl)benzyl)-2,7-diazaspiro[3.5]nonane-7-carboxylate], at ABHD6, the “% Inh ABHD6 Brain (Mouse, μM)” value was “### (### is ≥75%)”. Also, the “% Inh MGLL Brain (Mouse, μM)” value at MGLL is recorded as “### (### is ≥75%)”.
Take `CS(=O)(=O)N1CCC2(CCN(c3cc(Cl)cc(CN4CCCC45CN(C(=O)OC(C(F)(F)F)C(F)(F)F)C5)c3)C2)CC1` [Example 237, 1,1,1,3,3,3-Hexafluoropropan-2-yl 5-(3-chloro-5-(8-(methylsulfonyl)-2,8-diazaspiro[4.5]decan-2-yl)benzyl)-2,5-diazaspiro[3.4]octane-2-carboxylate]: the “% Inh ABHD6 Brain (Mouse, μM)” value at ABHD6 was “## (## is between 25 and 75%)”. The “% Inh MGLL Brain (Mouse, μM)” value at MGLL is on record as “### (### is ≥75%)”.
`COc1ccccc1CN1CC2(CCN(C(=O)OC(C(F)(F)F)C(F)(F)F)CC2)C1` [Example 92, 1,1,1,3,3,3-Hexafluoropropan-2-yl 2-(2-methoxybenzyl)-2,7-diazaspiro[3.5]nonane-7-carboxylate]: the “% Inh ABHD6 Brain (Mouse, μM)” value at ABHD6 was “### (### is ≥75%)”. The “% Inh MGLL Brain (Mouse, μM)” value at MGLL is listed as “### (### is ≥75%)”.
On to `CS(=O)(=O)N1CCC2(CCN(c3cc(Cl)ccc3CN3CCN(C(=O)OC(C(F)(F)F)C(F)(F)F)CC3)C2)CC1` [Example 30, 1,1,1,3,3,3-Hexafluoropropan-2-yl 4-(4-chloro-2-(8-(methylsulfonyl)-2,8-diazaspiro[4.5]decan-2-yl)benzyl)piperazine-1-carboxylate], for which the “% Inh ABHD6 Brain (Mouse, μM)” value at ABHD6 is “# (# is ≤25%)”. Also, at MGLL, the “IC50 MGLL Brain (Mouse, μM)” value is on record as “* * *” and the “% Inh MGLL Brain (Mouse, μM)” value is given as “### (### is ≥75%)”.
On to `CCN1CC2(CCN(c3cc(C(F)(F)F)ccc3CN3CCN(C(=O)OC(C(F)(F)F)C(F)(F)F)CC3)C2)C1` [Example 184, 1,1,1,3,3,3-Hexafluoropropan-2-yl 4-(2-(2-ethyl-2,6-diazaspiro[3,4]octan-6-yl)-4-(trifluoromethyl)benzyl) piperazine-1-carboxylate], for which the “% Inh ABHD6 Brain (Mouse, μM)” value on ABHD6 is “# (# is ≤25%)”. Also, the “% Inh MGLL Brain (Mouse, μM)” value on MGLL is reported as “### (### is ≥75%)”.
